Test results taken from ChEMBL document CHEMBL1137694, “Predicting anti-HIV activity of 1,3,4-thiazolidinone derivatives: 3D-QSAR approach” (Eur J Med Chem, 2009).

Test system: Human immunodeficiency virus
Assay: Antiviral activity against HIV assessed as reduction in virus-induced cytopathic effect by XTT assay
Format: functional, organism-based
Settings: Human immunodeficiency virus 1, read-out: pEC50 (converted)

Row | SMILES | EC50 [nM]
1 | COc1cc(C)nc(N2C(=O)CSC2c2c(F)cccc2Cl)n1 (configuration not stated) | 55.9
2 | Cc1cc(O)nc(N2C(=O)CSC2c2c(Cl)cccc2Cl)n1 (configuration not stated) | 30.4
3 | Cc1cccnc1N1C(=O)CSC1c1c(F)cccc1F (configuration not stated) | 18.7
4 | COc1cccc(OC)c1C1SCC(=O)N1c1cc(Br)ccn1 (configuration not stated) | 44.9
5 | O=C1CSC(c2c(F)cccc2F)N1c1cccnc1 (configuration not stated) | 10.5
6 | COC1CCC1N1C(=O)CSC1c1c(F)cccc1F (configuration not stated) | 84.6
7 | Cc1cccc(N2C(=S)CSC2c2c(Cl)cccc2Cl)n1 (configuration not stated) | 86.9
8 | CC1CC(C)C1N1C(=O)CSC1c1c(F)cccc1Cl (configuration not stated) | 85.7
9 | Cc1cc(C)nc(N2C(=O)CSC2c2c(F)cccc2F)c1 (configuration not stated) | 58.9
10 | Cc1cc(C)nc(N2C(=O)CSC2c2c(Cl)cccc2Cl)c1 (configuration not stated) | 89.8
11 | CC1CCC1N1C(=O)CSC1c1c(Cl)cccc1Cl (configuration not stated) | 79.8
12 | COc1cc(C)nc(N2C(=O)CSC2c2c(Cl)cccc2Cl)n1 (configuration not stated) | 23.9
13 | Cc1cccc(N2C(=O)CSC2c2c(Cl)cccc2Cl)n1 (configuration not stated) | 43.9
14 | Cc1cc(C)nc(N2C(=O)CSC2c2c(F)cccc2Cl)n1 (configuration not stated) | 37.9
15 | Cc1cc(Cl)nc(N2C(=O)CSC2c2c(Cl)cccc2Cl)n1 (configuration not stated) | 19.3
16 | COc1cccc(F)c1C1SCC(=O)N1c1cc(Br)ccn1 (configuration not stated) | 33.9
17 | O=C1CSC(c2c(F)cccc2Cl)N1c1cccc(Br)n1 (configuration not stated) | 63.9
18 | Cc1ccnc(N2C(=O)CSC2c2c(Cl)cccc2Cl)n1 (configuration not stated) | 43.9
19 | Cc1cc(C)nc(N2C(=O)CSC2c2c(Cl)cccc2Cl)n1 (configuration not stated) | 17
20 | O=C1CSC(c2c(F)cccc2F)N1c1cccc(Br)n1 (configuration not stated) | 29.9
21 | Cc1cccc(N2C(=O)CSC2c2c(F)cccc2F)n1 (configuration not stated) | 81.9
22 | COc1cccc(OC)c1C1SCC(=O)N1c1cc(C)ccn1 (configuration not stated) | 49.9
